{
  "source": "paper PMC3003779",
  "about": "(Chemistry & biology, 2010)",
  "key": {"SHR and WKY rats [1]": {"system": "SHR and WKY rats", "test": "mean arterial pressure and heart rate in anesthetized rats", "format": "in vivo, rat", "conditions": "for hypotensive effect: 0.3 mg/kg"}, "CB1 receptor": {"target": "CB1 receptor (Rattus norvegicus, UniProt P20272)", "sequence (P20272 whole entry)": "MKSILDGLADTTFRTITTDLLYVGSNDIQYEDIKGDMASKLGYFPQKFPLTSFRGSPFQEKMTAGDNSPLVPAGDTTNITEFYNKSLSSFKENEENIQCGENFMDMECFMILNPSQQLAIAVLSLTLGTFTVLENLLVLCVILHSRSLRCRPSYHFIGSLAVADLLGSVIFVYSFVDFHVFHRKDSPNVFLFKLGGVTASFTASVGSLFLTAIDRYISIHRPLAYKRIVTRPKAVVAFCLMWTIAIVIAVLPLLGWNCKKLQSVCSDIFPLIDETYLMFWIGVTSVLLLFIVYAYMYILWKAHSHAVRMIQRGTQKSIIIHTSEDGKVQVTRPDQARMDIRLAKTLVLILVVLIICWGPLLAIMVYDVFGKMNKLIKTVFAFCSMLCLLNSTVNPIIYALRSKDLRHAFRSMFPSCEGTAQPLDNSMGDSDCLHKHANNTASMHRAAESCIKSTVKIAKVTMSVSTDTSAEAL", "test": "HU210-stimulated [35S]GTPγS binding in brain membranes", "format": "biochemical", "conditions": "brain membrane preparations, SHR vs WKY"}, "human recombinant FAAH": {"target": "T1, human recombinant FAAH (Homo sapiens, UniProt O00519)", "T1 sequence (O00519 1-579)": "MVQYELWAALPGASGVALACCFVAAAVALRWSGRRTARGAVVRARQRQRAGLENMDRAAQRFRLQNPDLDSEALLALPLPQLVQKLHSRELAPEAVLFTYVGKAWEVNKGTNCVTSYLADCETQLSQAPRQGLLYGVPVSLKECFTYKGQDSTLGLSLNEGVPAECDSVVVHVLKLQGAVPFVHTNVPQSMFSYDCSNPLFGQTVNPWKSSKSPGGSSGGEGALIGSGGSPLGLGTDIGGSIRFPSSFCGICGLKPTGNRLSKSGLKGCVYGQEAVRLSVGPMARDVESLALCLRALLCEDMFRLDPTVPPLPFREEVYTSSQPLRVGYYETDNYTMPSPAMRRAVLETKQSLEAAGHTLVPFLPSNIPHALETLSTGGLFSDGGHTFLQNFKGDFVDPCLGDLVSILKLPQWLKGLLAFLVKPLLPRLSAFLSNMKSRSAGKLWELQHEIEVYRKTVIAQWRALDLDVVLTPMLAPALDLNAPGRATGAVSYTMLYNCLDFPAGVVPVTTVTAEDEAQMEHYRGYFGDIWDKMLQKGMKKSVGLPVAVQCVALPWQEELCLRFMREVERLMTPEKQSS", "test": "biochemical", "conditions": "in vitro"}, "FAAH [2]": {"target": "T2, FAAH (Mus musculus, UniProt O08914)", "T2 sequence (O08914 1-579)": "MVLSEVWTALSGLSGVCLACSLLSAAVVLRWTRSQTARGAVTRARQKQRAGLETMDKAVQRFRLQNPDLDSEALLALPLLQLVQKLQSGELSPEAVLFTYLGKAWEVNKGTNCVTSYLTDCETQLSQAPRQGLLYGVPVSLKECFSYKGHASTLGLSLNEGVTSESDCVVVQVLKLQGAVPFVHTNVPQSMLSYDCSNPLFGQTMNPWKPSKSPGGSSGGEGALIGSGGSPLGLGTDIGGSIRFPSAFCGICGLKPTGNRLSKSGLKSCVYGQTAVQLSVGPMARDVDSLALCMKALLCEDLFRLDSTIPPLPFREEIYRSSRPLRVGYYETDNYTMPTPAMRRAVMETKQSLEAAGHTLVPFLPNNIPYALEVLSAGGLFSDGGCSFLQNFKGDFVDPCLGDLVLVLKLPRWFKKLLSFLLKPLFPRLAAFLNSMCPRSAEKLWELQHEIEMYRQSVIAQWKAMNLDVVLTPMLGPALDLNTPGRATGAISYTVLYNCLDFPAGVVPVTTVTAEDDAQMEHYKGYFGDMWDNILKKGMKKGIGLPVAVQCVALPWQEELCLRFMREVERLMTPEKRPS", "test": "in vivo", "format": "in vivo", "conditions": "mouse"}, "FAAH [3]": {"target": "T2, FAAH", "test": "FAAH activity in brain and liver homogenates, drug added in vitro", "format": "biochemical"}, "FAAH [4]": {"target": "T2, FAAH", "format": "cell-based"}, "[5]": {"system": "anandamide levels in hepatocytes", "test": "anandamide levels in hepatocytes", "format": "cell-based, mouse", "conditions": "100 nM, dense suspension 40 mg/mL"}, "[6]": {"system": "mice with diet-induced obesity", "test": "intraperitoneal glucose tolerance test in mice on high-fat diet", "format": "in vivo, mouse"}, "SHR and WKY rats [7]": {"system": "SHR and WKY rats", "test": "non-fasting blood glucose in rats", "conditions": "10 mg/kg i.p."}, "Mouse hepatocytes": {"system": "Mouse hepatocytes", "test": "drug levels in hepatocyte suspensions by LC/MS/MS"}},
  "note": "Like-named read-outs stand apart in the source and are kept apart here.",
  "data": [
    {"smiles": "Cc1c(C(=O)NN2CCCCC2)nn(-c2ccc(Cl)cc2Cl)c1-c1ccc(I)cc1", "note": "[AM251]", "values": [
      {"measurement": "effect on the effects of HU210", "setting": "SHR and WKY rats [1]; SHR and WKY", "result": "abolished"},
      {"measurement": "effect of pretreatment on the MAP and HR effects of AM3506", "setting": "SHR and WKY rats [1]; SHR, 3 mg/kg i.p. 60 min before 1 mg/kg AM3506 i.v.", "result": "prevented"},
      {"measurement": "acute reversal of the fully developed effects of AM3506", "setting": "SHR and WKY rats [1]; SHR, 3 mg/kg i.v. at the peak hypotensive response to 1 mg/kg AM3506", "result": "acutely reversed"}
    ]},
    {"smiles": "CCCCCOc1ccc(C(=O)c2cccc3ccccc23)c2ccccc12", "note": "[CB13]", "values": [
      {"measurement": "hypotensive effect", "setting": "SHR and WKY rats [1]; SHR", "result": "−40±6", "unit": "mmHg"},
      {"measurement": "hypotensive effect", "setting": "SHR and WKY rats [1]; WKY", "result": "−36±10", "unit": "mmHg"}
    ]},
    {"smiles": "CCCCCCC(C)(C)c1cc(O)c2c(c1)OC(C)(C)[C@@H]1CC=C(CO)C[C@@H]21", "note": "[HU210]", "values": [
      {"measurement": "hypotension, SHR compared with WKY", "setting": "SHR and WKY rats [1]; 1 μg/kg i.v., anaesthetized rats", "result": "much greater hypotension in SHR than in WKY"},
      {"measurement": "CB1 receptor coupling efficiency, HU210-stimulated GTPγS labeling", "setting": "CB1 receptor", "result": "dramatically increased"}
    ]},
    {"smiles": "O=S(=O)(F)Cc1ccccc1", "note": "[PMSF, phenyl methyl sulfonyl fluoride, reference compound]", "values": [
      {"measurement": "potency against human recombinant FAAH relative to AM3506 and URB597", "setting": "human recombinant FAAH", "result": "3 orders of magnitude less potent"}
    ]},
    {"smiles": "NC(=O)c1cccc(-c2cccc(OC(=O)NC3CCCCC3)c2)c1", "note": "[URB597, reference compound]", "values": [
      {"measurement": "suppression of FAAH activity in brain", "setting": "FAAH [2]; in vivo, po, 10 mg/kg", "result": "86±2", "unit": "%"},
      {"measurement": "suppression of FAAH activity in liver", "setting": "FAAH [2]; in vivo, po, 10 mg/kg", "result": "83±0.5", "unit": "%"},
      {"measurement": "ED50", "setting": "FAAH [2]; read-out: ID50, inhibition of brain FAAH activity", "result": 0.22, "unit": "mg/kg"},
      {"measurement": "ED50", "setting": "FAAH [2]; read-out: ID50, inhibition of liver FAAH activity", "result": 0.45, "unit": "mg/kg"},
      {"measurement": "hypotensive/bradycardic potency, times less potent than AM3506", "setting": "SHR and WKY rats [1]; anesthetized SHR", "result": "~ 40 times"},
      {"measurement": "FAAH activity in tissue homogenates", "setting": "FAAH [3]", "result": "equally effective in blocking FAAH activity in brain and liver"},
      {"measurement": "FAAH activity in cell pellet, dilute hepatocyte suspension", "setting": "FAAH [4]", "result": "nearly completely blocked"},
      {"measurement": "FAAH activity in cells, dense hepatocyte suspension", "setting": "FAAH [4]", "result": "rapidly and nearly completely blocked"},
      {"measurement": "anandamide levels in hepatocytes", "setting": "[5]", "result": "markedly increased"},
      {"measurement": "ipGTT area under the curve (AUC)", "setting": "[6]; liver-specific CB1 knockout (LCB1−/−) mice on HFD, vehicle 322±37", "result": "337 ± 14", "unit": "mg·h/dL"},
      {"measurement": "effect on glucose tolerance", "setting": "[6]; liver-specific CB1−/− mice on HFD, 1.38 mg/kg", "result": "failed to affect glucose tolerance"},
      {"measurement": "effect on glucose tolerance", "setting": "[6]; liver-specific CB1−/− mice on HFD, 10 mg/kg", "result": "remained ineffective"},
      {"measurement": "effect on glucose tolerance", "setting": "[6]; male DIO mice, 1.38 mg/kg", "result": "marked increase in glucose intolerance"},
      {"measurement": "ipGTT area under the curve (AUC)", "setting": "[6]; male DIO mice, 1.38 mg/kg i.p. 60 min before glucose, vehicle 352±28", "result": "570 ± 45", "unit": "mg·h/dL"},
      {"measurement": "effect on glucose tolerance", "setting": "[6]; wild-type mice on HFD, 10 mg/kg, compared with the lower dose", "result": "same degree of glucose intolerance"},
      {"measurement": "non-fasting blood glucose after treatment", "setting": "SHR and WKY rats [7]; SHR, from 104.0±7.4", "result": "144.0 ± 9.6", "unit": "mg/dL"},
      {"measurement": "non-fasting blood glucose after treatment", "setting": "SHR and WKY rats [7]; WKY, from 90.0±7.2", "result": "135.3 ± 12.9", "unit": "mg/dL"},
      {"measurement": "recovery of drug from cell-free medium", "setting": "Mouse hepatocytes; 0 to 30 min, no hepatocytes", "result": "remained constant"},
      {"measurement": "drug level in cell pellets, dense hepatocyte suspension", "setting": "Mouse hepatocytes; 100 nM, 40 mg/mL", "result": "gradually declined over 10 min"},
      {"measurement": "drug level in medium, dense hepatocyte suspension", "setting": "Mouse hepatocytes; 100 nM, 40 mg/mL", "result": "rapidly depleted from the medium"},
      {"measurement": "free drug (parent ion) still present in cell-free supernatant", "setting": "Mouse hepatocytes; dilute hepatocyte suspension 1 mg/mL, 100 nM, 10 min, % of drug added at 0 min", "result": "50–55%"}
    ]},
    {"smiles": "Cc1c(C(=O)NN2CCCCC2)nn(-c2ccc(Cl)cc2Cl)c1-c1ccc(Cl)cc1", "note": "[rimonabant]", "values": [
      {"measurement": "ΔHR, acute reversal of AM3506 effect", "setting": "SHR and WKY rats [1]; SHR, 3 mg/kg, after AM3506", "result": "+129±14 bpm"},
      {"measurement": "ΔMBP, acute reversal of AM3506 effect", "setting": "SHR and WKY rats [1]; SHR, 3 mg/kg, after AM3506", "result": "+101±9 mmHg"}
    ]}
  ]
}
